In the supplement of paper PMC10307832:

Tests used:
Experiment in all cases: relative viability (nuclei count vs DMSO), 5 days (fraction); higher = more cells survive
[1] = system: RERF-LC-KJ
Method in brief: (§1)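 Relative viability is defined as nuclei in treated wells over nuclei in vehicle wells. Duplicate plates were run and medians reported. Lung cancer cell lines in 1536-well plates were dosed by pin tool one day after seeding, with one drug or with a fixed anchor-drug dose plus five library-drug doses (not always all listed) in √10 steps, and nuclei were counted after 5 days.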

[2] = system: HCC-78
Method in brief: as §1

[3] = system: NCI-H2405
Method in brief: as §1

[4] = system: EMC-BAC-2
Method in brief: as §1

[5] = system: EKVX
Method in brief: as §1

[6] = system: ChaGo-K-1
Method in brief: as §1

[7] = system: NCI-H23
Method in brief: as §1

[8] = system: SW 1573
Method in brief: as §1

[9] = system: NCI-H1975
Method in brief: as §1

[10] = system: NCI-H1563
Method in brief: as §1

[11] = system: LCLC-103H
Method in brief: as §1

[12] = system: LU99A
Method in brief: as §1

[13] = system: NCI-H2126
Method in brief: as §1

[14] = system: NCI-H322M
Method in brief: as §1

[15] = system: PC-14
Method in brief: as §1

[16] = system: EPLC-272H
Method in brief: as §1

[17] = system: LXF-289
Method in brief: as §1

[18] = system: SK-LU-1
Method in brief: as §1

[19] = system: NCI-H1666
Method in brief: as §1

[20] = system: HCC-827
Method in brief: as §1

SMILES: O=c1cc(-c2cccc3c2Sc2ccccc2S3)oc(N2CCOCC2)c1 + CC(C)C[C@H](NC(=O)[C@H](Cc1ccccc1)NC(=O)c1cnccn1)B(O)O [Bortezomib] (partner 0.002 µM)
- relative viability ([1]; first compound 0.08 µM): 1.04
- relative viability ([1]; first compound 0.253 µM): 1.36
- relative viability ([1]; first compound 0.8 µM): 1.22
- relative viability ([1]; first compound 2.53 µM): 1.09
- relative viability ([1]; first compound 8 µM): 1.02
- relative viability ([2]; first compound 0.08 µM): 0.461
- relative viability ([2]; first compound 0.253 µM): 0.48
- relative viability ([2]; first compound 0.8 µM): 0.355
- relative viability ([2]; first compound 2.53 µM): 0.482
- relative viability ([2]; first compound 8 µM): 0.525
- relative viability ([3]; first compound 0.08 µM): 0.949
- relative viability ([3]; first compound 0.253 µM): 1.11
- relative viability ([3]; first compound 0.8 µM): 0.996
- relative viability ([3]; first compound 2.53 µM): 0.98
- relative viability ([3]; first compound 8 µM): 1.03
- relative viability ([4]; first compound 0.08 µM): 1.03
- relative viability ([4]; first compound 0.253 µM): 1.18
- relative viability ([4]; first compound 0.8 µM): 1.1
- relative viability ([4]; first compound 2.53 µM): 1.03
- relative viability ([4]; first compound 8 µM): 1.1
- relative viability ([5]; first compound 0.08 µM): 0.977
- relative viability ([5]; first compound 0.253 µM): 1.11
- relative viability ([5]; first compound 0.8 µM): 1.1
- relative viability ([5]; first compound 2.53 µM): 1.06
- relative viability ([5]; first compound 8 µM): 1.1
- relative viability ([6]; first compound 0.08 µM): 0.915
- relative viability ([6]; first compound 0.253 µM): 1.02
- relative viability ([6]; first compound 0.8 µM): 1.28
- relative viability ([6]; first compound 8 µM): 1.29
- relative viability ([7]; first compound 0.08 µM): 0.948
- relative viability ([7]; first compound 0.253 µM): 1.16
- relative viability ([7]; first compound 0.8 µM): 1.25
- relative viability ([7]; first compound 2.53 µM): 0.914
- relative viability ([7]; first compound 8 µM): 1.09
- relative viability ([8]; first compound 0.08 µM): 0.976
- relative viability ([8]; first compound 0.253 µM): 1.13
- relative viability ([8]; first compound 0.8 µM): 1.09
- relative viability ([8]; first compound 2.53 µM): 1.05
- relative viability ([8]; first compound 8 µM): 1.09
- relative viability ([9]; first compound 0.08 µM): 0.425
- relative viability ([9]; first compound 0.253 µM): 0.419
- relative viability ([9]; first compound 0.8 µM): 0.319
- relative viability ([9]; first compound 2.53 µM): 0.367
- relative viability ([9]; first compound 8 µM): 0.384
- relative viability ([10]; first compound 0.08 µM): 0.773
- relative viability ([10]; first compound 0.253 µM): 0.857
- relative viability ([10]; first compound 0.8 µM): 0.767
- relative viability ([10]; first compound 2.53 µM): 0.92
- relative viability ([10]; first compound 8 µM): 0.83
- relative viability ([11]; first compound 0.08 µM): 1.16
- relative viability ([11]; first compound 0.253 µM): 1.18
- relative viability ([11]; first compound 0.8 µM): 1.08
- relative viability ([11]; first compound 2.53 µM): 1.14
- relative viability ([11]; first compound 8 µM): 1.37
- relative viability ([12]; first compound 0.08 µM): 1.18
- relative viability ([12]; first compound 0.253 µM): 1.07
- relative viability ([12]; first compound 0.8 µM): 1.5
- relative viability ([12]; first compound 2.53 µM): 1.03
- relative viability ([12]; first compound 8 µM): 1.3
- relative viability ([13]; first compound 0.08 µM): 1.13
- relative viability ([13]; first compound 0.253 µM): 1.13
- relative viability ([13]; first compound 0.8 µM): 1.12
- relative viability ([13]; first compound 2.53 µM): 1.1
- relative viability ([13]; first compound 8 µM): 1.2
- relative viability ([14]; first compound 0.08 µM): 1.21
- relative viability ([14]; first compound 0.253 µM): 1.21
- relative viability ([14]; first compound 0.8 µM): 1.2
- relative viability ([14]; first compound 2.53 µM): 1.04
- relative viability ([14]; first compound 8 µM): 1.17
- relative viability ([15]; first compound 0.08 µM): 1.08
- relative viability ([15]; first compound 0.253 µM): 1.01
- relative viability ([15]; first compound 0.8 µM): 0.962
- relative viability ([15]; first compound 2.53 µM): 0.866
- relative viability ([15]; first compound 8 µM): 0.882
- relative viability ([16]; first compound 0.08 µM): 0.806
- relative viability ([16]; first compound 0.253 µM): 1.09
- relative viability ([16]; first compound 0.8 µM): 1.02
- relative viability ([16]; first compound 2.53 µM): 0.721
- relative viability ([16]; first compound 8 µM): 0.802
- relative viability ([17]; first compound 0.08 µM): 0.994
- relative viability ([17]; first compound 0.253 µM): 0.976
- relative viability ([17]; first compound 0.8 µM): 1.08
- relative viability ([17]; first compound 2.53 µM): 0.988
- relative viability ([17]; first compound 8 µM): 1.03
- relative viability ([18]; first compound 0.08 µM): 1.12
- relative viability ([18]; first compound 0.253 µM): 1.18
- relative viability ([18]; first compound 0.8 µM): 1.16
- relative viability ([18]; first compound 2.53 µM): 1.2
- relative viability ([18]; first compound 8 µM): 1.91
- relative viability ([19]; first compound 0.08 µM): 0.666
- relative viability ([19]; first compound 0.253 µM): 0.887
- relative viability ([19]; first compound 0.8 µM): 0.559
- relative viability ([19]; first compound 2.53 µM): 0.793
- relative viability ([19]; first compound 8 µM): 0.759
- relative viability ([20]; first compound 0.08 µM): 0.962
- relative viability ([20]; first compound 0.253 µM): 0.96
- relative viability ([20]; first compound 0.8 µM): 0.974
- relative viability ([20]; first compound 2.53 µM): 0.873
- relative viability ([20]; first compound 8 µM): 1.11
